This note sets out measurements from patent US11473089B2, “Aptamer for ADAMTS5 and use for aptamer for ADAMTS5” (RIBOMIC INC., priority 2017, dated 2022).

One series has as its system HFLS-OA cells. Description: aggrecan cleavage inhibitory activity in synovial cells. Format: cell-based, human. Conditions: Table 11, culture supernatant after 3 days. Here is the method: The aggrecan cleavage inhibitory activity of the aptamers shown in SEQ ID NOs: 11(34), 28(13), 28(15), 28(18) in synovial cells was measured. The measurement was performed by the following method. Synovial cells (HFLS-OA cells) (manufactured by Cell Applications) derived from human knee osteoarthritis patients were seeded at 2×10^4 cells per well, and cultured for 16-24 hr. The culture method followed the manual of Cell Applications. After culturing, the medium was removed, the cells were washed with Basal Medium (manufactured by Cell Applications), and 500 ng of aggrecan G1-IGD-G2 (manufactured by R&D systems) diluted with Basal Medium as a substrate was added. The aptamer was added simultaneously with the substrate to the samples to be evaluated for inhibition by the aptamer. The cells were kept cultured and the culture supernatant was collected after 3 days. The added substrate is cleaved during culture by substrate-cleaving enzymes such as ADAMTS5 secreted from the HFLS-OA cells. The amount of the cleaved substrate fragment contained in the culture supernatant was quantified by the ELISA method described in Example 5. The substrate cleavage efficiency in this evaluation system was 1-8%. The nucleic acid shown in SEQ ID NO: 15 was used as a negative control.

Another series has as its target T1, ADAMTS5 (Homo sapiens, UniProt Q9UNA0).
T1 construct: purchased R&D systems
T1 sequence (Q9UNA0 262-930): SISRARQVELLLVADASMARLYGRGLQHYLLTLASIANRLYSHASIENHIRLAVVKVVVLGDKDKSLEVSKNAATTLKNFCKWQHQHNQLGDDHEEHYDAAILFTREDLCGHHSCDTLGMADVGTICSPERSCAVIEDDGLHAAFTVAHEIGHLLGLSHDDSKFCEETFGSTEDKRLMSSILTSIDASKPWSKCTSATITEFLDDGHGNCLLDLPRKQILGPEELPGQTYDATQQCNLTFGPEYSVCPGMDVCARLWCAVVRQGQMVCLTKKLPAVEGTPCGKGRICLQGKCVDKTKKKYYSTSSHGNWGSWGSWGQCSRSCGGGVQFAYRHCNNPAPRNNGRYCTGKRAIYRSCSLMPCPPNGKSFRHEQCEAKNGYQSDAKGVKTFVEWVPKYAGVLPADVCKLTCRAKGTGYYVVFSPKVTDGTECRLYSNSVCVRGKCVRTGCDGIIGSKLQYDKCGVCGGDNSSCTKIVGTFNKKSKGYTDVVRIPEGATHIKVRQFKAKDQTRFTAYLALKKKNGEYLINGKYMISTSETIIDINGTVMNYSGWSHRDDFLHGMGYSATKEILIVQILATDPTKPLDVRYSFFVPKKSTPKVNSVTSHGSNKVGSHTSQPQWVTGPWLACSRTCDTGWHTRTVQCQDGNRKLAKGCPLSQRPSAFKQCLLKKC
Description: ADAMTS5 enzyme inhibition, aggrecan G1-IGD-G2 cleavage, sandwich ELISA detection (evaluation method 2). In kind it is biochemical. Conditions: Table 6; 2 nM aptamer; 0.2 nM ADAMTS5, 400 nM substrate, 30 min. As for the experimental part:
On the other hand, the aptamers having the sequences shown by the sequences of SEQ ID NOs: 11(34)-11(35) and SEQ ID NO: 15 were evaluated by the following method (evaluation method 2). The cleavage reaction of the substrate (aggrecan G1-IGD-G2) by ADAMTS5 was performed in the same manner as in Example 1 except the following points. The differences are that the final concentrations of ADAMTS5 and the substrate were respectively 0.2 nM and 400 nM (48 μg/mL), and that the enzyme reaction time was 30 min. After the reaction, the reaction was stopped by adding an excess amount of an ADAMTS5 small molecule inhibitor. The cleaved substrate was quantified by a sandwich ELISA method using two kinds of anti-aggrecan antibodies. […] Using this, the amount of cleaved substrate can be quantified. […] The inhibition rate of the test substance was calculated using the following equation. inhibition rate (%)=(PE−Papt)/(PE−P0)×100 wherein PE is the amount of a cleaved substrate with the addition of ADAMTS5, Papt is the amount of a cleaved substrate with the addition of a test substance, and P0 is the residual amount of a cleaved substrate without the addition of ADAMTS5.
The measurement results of the inhibitory activity of the aptamers having the sequences shown in SEQ ID NOs: 11(34)-11(35) and SEQ ID NO: 15 are shown in Table 6, evaluation method 2. […] “n.d.” means not determined. […]

As for “15 (AUUGGCACGGAGACAGCGCUCGCUUCUCGAUCACCAAU; listed as RNA, chemistry not given here) [compound 15]”, in the series on HFLS-OA cells (3 nM aptamer), the “inhibition rate (%) 3 nM” value was determined as 10%. Moreover, in the series with HFLS-OA cells (30 nM aptamer), the “inhibition rate (%) 30 nM” value turned out to be 8%. Also, the “inhibition rate (%) 300 nM” value in the series with HFLS-OA cells (300 nM aptamer) is 37%. Besides, in the series with ADAMTS5, the “inhibitory activity (%) evaluation method 2” value is reported as 16.5%.
